Reference: ChEMBL document CHEMBL3885881, “DrugMatrix”
Where “and” joins values, the source holds several entries; their conditions need not be identical. Equal entries are not always repeated.

Organism: Rattus norvegicus
Assay type: toxicity, organism-based, Sprague-Dawley
Conditions: in vivo, sc, 24 h, route mini-PUMP - SUBCUTANEOUS, vehicle 100 % SALINE; for ALANINE AMINOTRANSFERASE / ALBUMIN / ALKALINE PHOSPHATASE / ASPARTATE AMINOTRANSFERASE / BLOOD UREA NITROGEN / CARBON DIOXIDE / CHLORIDE / CHOLESTEROL / CREATINE PHOSPHOKINASE / CREATININE / GLUCOSE / LACTATE DEHYDROGENASE / PHOSPHORUS / POTASSIUM / SODIUM / TOTAL BILIRUBIN / TOTAL PROTEIN / URIC ACID / LIPASE: tissue Plasma
[1] = 0 mg/kg, vehicle control, tissue Blood, dose level Control, time 1 day
[2] = 0 mg/kg, vehicle control, dose level Control, time 1 day
[3] = 2 mg/kg, tissue Blood, dose level High, time 1 day
[4] = 2 mg/kg, dose level High, time 1 day
[5] = […], tissue Blood, dose 4.2 mg/Kg, dose level M1, time 1 day
[6] = […], dose 4.2 mg/Kg, dose level M1, time 1 day

Description: DrugMatrix - Regimen: Single

CC(C)NCC(O)c1ccc(O)c(O)c1 (stereo not drawn) [ISOPROTERENOL]
ABSOLUTE SEGMENTED NEUTROPHIL [1]: 1753.5 CELLS/uL
BASOPHIL [1]: 0.4% and 0%
EOSINOPHIL [1]: 0.3% and 0.17%
ERYTHROCYTE COUNT [1]: 6.25 x10E6/uL and 5.64 x10E6/uL
HEMATOCRIT [1]: 41.8% and 34.52%
HEMOGLOBIN [1]: 13.33 G/DL and 12.68 G/DL
LEUKOCYTE COUNT [1]: 11.55 x10E3/uL and 13 x10E3/uL
LYMPHOCYTE [1]: 72.6% and 84.5%
MEAN CORPUSCULAR HEMOGLOBIN [1]: 21.37 pg and 22.5 pg
MONOCYTE [1]: 2.4% and 1.83%
NEUTROPHIL [1]: 23.4% and 13.5%
NUCLEATED RED BLOOD CELLS [1]: 0.17 /100WBC
PLATELET COUNT [1]: 1265.33 x10E3/uL and 679.17 x10E3/uL
ALANINE AMINOTRANSFERASE [2]: 40.33 u/L and 42.67 u/L
ALBUMIN [2]: 3.63 G/DL and 3.77 G/DL
ALKALINE PHOSPHATASE [2]: 385.33 u/L and 291.17 u/L
ASPARTATE AMINOTRANSFERASE [2]: 79.33 u/L and 74.5 u/L
BLOOD UREA NITROGEN [2]: 13.33 mg/dL and 15.33 mg/dL
CARBON DIOXIDE [2]: 40.67 mmol/L and 30 mmol/L
CHLORIDE [2]: 103 MEQ/L and 100.83 MEQ/L
CHOLESTEROL [2]: 86.33 mg/dL and 65.33 mg/dL
CREATINE PHOSPHOKINASE [2]: 190.33 u/L
CREATININE [2]: 0.4 mg/dL and 0.15 mg/dL
GLUCOSE [2]: 165.67 mg/dL and 179.83 mg/dL
LACTATE DEHYDROGENASE [2]: 103.33 u/L and 162.67 u/L
PHOSPHORUS [2]: 11.7 mg/dL and 12.2 mg/dL
POTASSIUM [2]: 5.5 MEQ/L and 5.73 MEQ/L
SODIUM [2]: 145 MEQ/L and 144.7 MEQ/L
TOTAL BILIRUBIN [2]: 0.27 mg/dL and 0.15 mg/dL
TOTAL PROTEIN [2]: 5.87 G/DL
URIC ACID [2]: 1 mg/dL and 1.93 mg/dL
ABSOLUTE BASOPHIL [3]: 13.3 cells/µL
ABSOLUTE EOSINOPHIL [3]: 56.7 cells/µL
ABSOLUTE LYMPHOCYTE [3]: 4960 cells/µL
ABSOLUTE MONOCYTE [3]: 150 cells/µL
BASOPHIL [3]: 0.2%
EOSINOPHIL [3]: 0.83%
ERYTHROCYTE COUNT [3]: 5.65 x10E6/uL
HEMATOCRIT [3]: 36.77%
HEMOGLOBIN [3]: 11.77 G/DL
LEUKOCYTE COUNT [3]: 6.69 x10E3/uL
LYMPHOCYTE [3]: 74.03%
MEAN CORPUSCULAR HEMOGLOBIN [3]: 20.8 pg
MEAN CORPUSCULAR HEMOGLOBIN CONCENTRATION [3]: 31.97 G/DL
MEAN CORPUSCULAR VOLUME [3]: 65.1 fL
MONOCYTE [3]: 2.3%
NEUTROPHIL [3]: 22.1%
PLATELET COUNT [3]: 1167.67 x10E3/uL
ALANINE AMINOTRANSFERASE [4]: 33 u/L
ALBUMIN [4]: 3.6 G/DL
ALKALINE PHOSPHATASE [4]: 400 u/L
ASPARTATE AMINOTRANSFERASE [4]: 86.67 u/L
BLOOD UREA NITROGEN [4]: 14.67 mg/dL
CARBON DIOXIDE [4]: 33 mmol/L
CHLORIDE [4]: 106.67 MEQ/L
CHOLESTEROL [4]: 105 mg/dL
CREATINE PHOSPHOKINASE [4]: 281.33 u/L
CREATININE [4]: 0.6 mg/dL
GLUCOSE [4]: 99.33 mg/dL
LACTATE DEHYDROGENASE [4]: 93 u/L
LIPASE [4]: 24.67 u/L
PHOSPHORUS [4]: 11.33 mg/dL
POTASSIUM [4]: 5.6 MEQ/L
SODIUM [4]: 146 MEQ/L
TOTAL BILIRUBIN [4]: 0.2 mg/dL
TOTAL PROTEIN [4]: 5.87 G/DL
URIC ACID [4]: 0.93 mg/dL
ABSOLUTE EOSINOPHIL [5]: 59.67 CELLS/uL
ABSOLUTE LYMPHOCYTE [5]: 9880 CELLS/uL
ABSOLUTE MONOCYTE [5]: 232.33 CELLS/uL
ABSOLUTE SEGMENTED NEUTROPHIL [5]: 3561.33 CELLS/uL
BASOPHIL [5]: 0%
EOSINOPHIL [5]: 0.33%
ERYTHROCYTE COUNT [5]: 5.17 x10E6/uL
HEMATOCRIT [5]: 30.7%
HEMOGLOBIN [5]: 11.47 G/DL
LEUKOCYTE COUNT [5]: 13.73 x10E3/uL
LYMPHOCYTE [5]: 71.67%
MEAN CORPUSCULAR HEMOGLOBIN [5]: 22.2 pg
MEAN CORPUSCULAR HEMOGLOBIN CONCENTRATION [5]: 37.33 G/DL
MEAN CORPUSCULAR VOLUME [5]: 59.43 fL
MONOCYTE [5]: 1.67%
NEUTROPHIL [5]: 26.33%
NUCLEATED RED BLOOD CELLS [5]: 0 /100WBC
PLATELET COUNT [5]: 1159 x10E3/uL
ALANINE AMINOTRANSFERASE [6]: 55.33 u/L
ALBUMIN [6]: 3.73 G/DL
ALKALINE PHOSPHATASE [6]: 326.67 u/L
ASPARTATE AMINOTRANSFERASE [6]: 83 u/L
BLOOD UREA NITROGEN [6]: 14 mg/dL
CARBON DIOXIDE [6]: 28.67 mmol/L
CHLORIDE [6]: 100.67 MEQ/L
CHOLESTEROL [6]: 89.67 mg/dL
CREATININE [6]: 0.13 mg/dL
GLUCOSE [6]: 154 mg/dL
LACTATE DEHYDROGENASE [6]: 126.67 u/L
LIPASE [6]: 8.67 u/L
PHOSPHORUS [6]: 14.57 mg/dL
POTASSIUM [6]: 6.55 MEQ/L
SODIUM [6]: 144.37 MEQ/L
TOTAL BILIRUBIN [6]: 0.1 mg/dL
TOTAL PROTEIN [6]: 6.03 G/DL
URIC ACID [6]: 2.43 mg/dL
